What was measured:
Alk = biological target: T1, Alk (Homo sapiens, UniProt Q9UM73); assay: Tyrosine kinase assay (Kinase-Glo or AlphaScreen), Alk; details: biochemical tyrosine kinase assay
T1 construct: 6×His- or GST-tagged kinase domain fragments of the corresponding RTKs expressed in baculovirus system; host or cells: baculovirus system
Outline: (§1)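 Inhibition measured on recombinant RTK kinase domains phosphorylating poly(Glu-Tyr) at 10 μM ATP, either by ATP depletion luminescence (37 °C, 60 min) or by PT66/PT100 AlphaScreen with biotinylated substrate (RT, 30 min plus 60 min bead step). For Alk, InsR and Jak2, enzyme titrated to ≤30% ATP consumption; IC50 from nonlinear regression.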

InsR = biological target: T2, InsR (Homo sapiens, UniProt P06213); assay: Tyrosine kinase assay (Kinase-Glo or AlphaScreen), InsR; details: biochemical tyrosine kinase assay
T2 construct: 6×His- or GST-tagged kinase domain fragments of the corresponding RTKs expressed in baculovirus system; host or cells: baculovirus system
Outline: as §1

Jak2 = biological target: T3, Jak2 (Homo sapiens, UniProt O60674); assay: Tyrosine kinase assay (Kinase-Glo or AlphaScreen), Jak2; details: biochemical tyrosine kinase assay
T3 construct: 6×His- or GST-tagged kinase domain fragments of the corresponding RTKs expressed in baculovirus system; host or cells: baculovirus system
Outline: as §1

IGF1R tyrosine kinase = biological target: T4, IGF1R tyrosine kinase (Homo sapiens, UniProt P08069); assay: IGF1R tyrosine kinase assay (Kinase-Glo ATP depletion or PT66/PT100 AlphaScreen); details: biochemical tyrosine kinase assay
T4 construct: 6×His- or GST-tagged kinase domain fragments of the corresponding RTKs expressed in baculovirus system; host or cells: baculovirus system
Outline: as §1

TrkA = biological target: T5, TrkA (Homo sapiens, UniProt P04629); assay: Tyrosine kinase assay (Kinase-Glo or AlphaScreen), TrkA; details: biochemical tyrosine kinase assay
T5 construct: 6×His- or GST-tagged kinase domain fragments of the corresponding RTKs expressed in baculovirus system; host or cells: baculovirus system
Protocol: To determine inhibition of several tyrosine kinases, such as IGF1R, InsR, Alk, TrkA and Jak2, kinase assays are conducted using either Kinase-Glo (Promega) or AlphaScreen (PerkinElmer) kinase assay platforms. The Kinase-Glo Luminescent Kinase Assay is a homogeneous method for measuring kinase activity by determining the amount of ATP remaining after a kinase reaction. The luminescent signal is proportional to the amount of ATP and inversely proportional to the amount of kinase activity. Tyrosine kinase PT66 AlphaScreen Assay is a high-sensitivity homogeneous, anti-phosphotyrosine antibody-mediated luminescent proximity method measuring, incorporation of phosphate in synthetic poly(Glu-Tyr) substrate. The kinase preparations used consist of purified recombinant, 6×His- or GST-tagged kinase domain fragments of the corresponding RTKs expressed in baculovirus system.
The IGF1R tyrosine kinase is assayed in Kinase-Glo ATP depletion assay using the synthetic polymer poly(Glu-Tyr, 4:1) (Sigma Chemicals) as a phosphoacceptor substrate. Each reaction mixture consists of a total volume of 10 μl and contains 40 ng of the enzyme, 5 μg of poly(Glu-Tyr), 10 μM of ATP and variable concentrations of test compounds. The mixtures also contain 50 mM Tris-HCl, pH 7.5; 5 mM MgCl2; 5 mM MnCl2; 2 mM DTT and 0.01% Tween 20. The reaction mixtures are incubated at 37° C. for 60 minutes and residual concentration of ATP in the mixture is determined by adding luciferase-containing Kinase-Glo (Promega) development reagent and counting luminescence levels using Fusion Universal Microplate Analyzer (PerkinElmer). Tested compounds are dissolved in dimethyl sulfoxide to a stock concentration of 10 mM and are typically evaluated in the assay at eight concentrations in 1 nM to 20 μM range, each in quadruplicate. […] IC50 values are derived by non-linear regression analysis using Prism 3.0 software (Graphpad Software). Other tyrosine kinases are assayed according to the same protocol after titrating amount of the enzyme to provide optimal signal-to-noise ratio and no more than 30% of total ATP consumption in the reaction conditions used.
The IGF1R tyrosine kinase is assayed in Phosphotyrosine (PT66 or PT 100) AlphaScreen chemiluminescent assay (PerkinElmer) according to the manufacturerer's recommendations. Each kinase reaction mixture consists of a total volume of 15 μl and contains 0.1-1 ng of the enzyme, 7 ng of biotinylated poly(Glu-Tyr) (Cis-Bio), 10 μM of ATP and variable concentrations of test compounds. The mixtures also contain 50 mM Tris-HCl, pH 7.5; 5 mM MgCl2; 5 mM MnCl2; 2 mM DTT and 0.01% Tween 20. The reaction mixtures are incubated at room temperature for 30 minutes. Ten (10) μl of the mixture of […] and donor beads (as supplied by the manufacturer) is then added to the reaction and the incubation is continued for an additional 60 minutes.

MM1r = assay: Cell proliferation inhibition, MTT assay, MM1r; format: cell-based; details: Homo sapiens, MM.1R, 72 h, MM1R multiple myeloma cells, 3-day proliferation
Source text: (§2) IGF1R and other tyrosine kinase inhibitors can inhibit the proliferation of certain cancer cell lines indicating their possible therapeutic utility for treating the corresponding cancer types. Cancer cell lines of interest and control normal lines, including CHO, HEK293, BA/F3, COLO205, PC3, DU145, MCF7, Panc1, ACHN, Hep G2, H460, K562, TT, U87-MG, CAOV-3, SK-MEL5, Karpas 299 and human multiple myeloma cell lines H929, MM1s, MM1r, UTMC2, CPM2, KMS11, My5, KMS12PE, My7, JJN3, KMS18, U266, SKMM2, RPMI-8226 are plated in white, clear-bottomed 384-well cell culture plates at 2500-5000 cells per well and supplied with dilutions of tested compounds After a desired period of time (typically 3 days), the number of viable cells is quantitated by using Cell Titer-Glo Luminescent Cell Viability Assay (Promega), a cell proliferation assay system based on detection of total amount of ATP present as a measure of cell metabolic activity. The plated cells are mixed with the Cell Titer-Glo developing reagent and counted in a luminescence multiwell plate reader according to the standard manufacturer's protocol to generate IC50 curves for cell proliferation inhibition. Results are typically reported as percent of growth (% viability =(OD72h(compound)−ODday0))/(OD72h(no compound)−ODday0). Alternatively, viable cells are quantitated by using the conventional colorimetric MTT assay. The MTT assay is based on the cleavage of the yellow tetrazolium salt MTT to purple formazan crystal by metabolic active cells. The formazan is then solubilized, and the concentration determined by optical density at 570 nm. The cells plated and incubated with a compound as described above are supplemented with the solution of MTT and incubated for 2-3 hours. The growth medium is removed and dimethyl sulfoxide is added into each well to dissolve the formazan. The absorbance is measured on an ELISA plate reader with a test wavelength of 570 nm and a background subtraction wavelength of 630 nm to obtain sample signal (OD570-OD630). […] The results are reported in terms of IC50 value for a particular compound and a cell line in the standard 3-day proliferation assay using Cell Titer-Glo. […] The results are reported in terms of IC50 value for a particular compound and a cell line in the standard 3-day proliferation assay using MTT assay.

CPM2 = assay: Cell proliferation inhibition, MTT assay, CPM2; format: cell-based; details: Homo sapiens, Multiple myeloma cell, 72 h, CPM2 multiple myeloma cells, 3-day proliferation
Source text: as §2

KMS11 = assay: Cell proliferation inhibition, MTT assay, KMS11; format: cell-based; details: Homo sapiens, KMS-11, 72 h, KMS11 multiple myeloma cells, 3-day proliferation
Source text: as §2

H929 = assay: Cell proliferation inhibition, MTT assay, H929; format: cell-based; details: Homo sapiens, NCI-H929, 72 h, H929 multiple myeloma cells, 3-day proliferation
Source text: as §2

[1] = tested on: HEK293 (human normal embryonic kidney); assay: Cell proliferation inhibition, MTT assay, HEK293; format: cell-based; details: 72 h, HEK293 cells, 3-day proliferation, read-out: HEK IC50
Source text: as §2

MM1s = assay: Cell proliferation inhibition, MTT assay, MM1s; format: cell-based; details: Homo sapiens, MM1.S, 72 h, MM1S multiple myeloma cells, 3-day proliferation
Source text: as §2

[2] = tested on: CHO (chinese hamster ovary); assay: Cell proliferation inhibition, MTT assay, CHO; format: cell-based; details: Cricetulus griseus, 72 h, CHO cells, 3-day proliferation
Source text: as §2

UTMC2 = assay: Cell proliferation inhibition, MTT assay, UTMC2; format: cell-based; details: Homo sapiens, 72 h, UTMC2 multiple myeloma cells, 3-day proliferation
Source text: as §2

T4 sequence (P08069 999-1274 limits assumed): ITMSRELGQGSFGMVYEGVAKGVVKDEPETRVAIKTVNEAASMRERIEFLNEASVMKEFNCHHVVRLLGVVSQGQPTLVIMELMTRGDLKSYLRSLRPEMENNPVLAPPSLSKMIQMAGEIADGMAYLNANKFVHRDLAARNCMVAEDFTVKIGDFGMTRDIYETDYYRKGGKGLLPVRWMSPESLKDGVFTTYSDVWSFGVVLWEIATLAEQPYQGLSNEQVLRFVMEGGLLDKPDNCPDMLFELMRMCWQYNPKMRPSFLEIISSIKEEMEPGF
T2 sequence (P06213 1023-1298 limits assumed, species assumed): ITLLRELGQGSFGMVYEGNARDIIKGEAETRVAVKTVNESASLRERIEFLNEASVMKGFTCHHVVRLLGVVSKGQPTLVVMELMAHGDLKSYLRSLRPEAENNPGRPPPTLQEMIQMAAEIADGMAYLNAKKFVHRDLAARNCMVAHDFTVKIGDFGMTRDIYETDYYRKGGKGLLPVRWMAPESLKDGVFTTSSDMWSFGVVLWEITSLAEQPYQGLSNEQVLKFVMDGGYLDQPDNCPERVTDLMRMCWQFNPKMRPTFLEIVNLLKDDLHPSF
T3 sequence (O60674 849-1124 limits assumed, species assumed): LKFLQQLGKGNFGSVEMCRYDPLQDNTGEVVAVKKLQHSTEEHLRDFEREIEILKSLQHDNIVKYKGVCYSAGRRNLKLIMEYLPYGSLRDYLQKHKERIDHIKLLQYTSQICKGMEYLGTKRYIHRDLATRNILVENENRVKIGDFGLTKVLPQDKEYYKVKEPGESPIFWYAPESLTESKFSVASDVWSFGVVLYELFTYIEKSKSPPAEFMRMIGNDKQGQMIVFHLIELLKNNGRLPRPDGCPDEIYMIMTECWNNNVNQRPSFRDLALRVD
T5 sequence (P04629 510-781 limits assumed, species assumed): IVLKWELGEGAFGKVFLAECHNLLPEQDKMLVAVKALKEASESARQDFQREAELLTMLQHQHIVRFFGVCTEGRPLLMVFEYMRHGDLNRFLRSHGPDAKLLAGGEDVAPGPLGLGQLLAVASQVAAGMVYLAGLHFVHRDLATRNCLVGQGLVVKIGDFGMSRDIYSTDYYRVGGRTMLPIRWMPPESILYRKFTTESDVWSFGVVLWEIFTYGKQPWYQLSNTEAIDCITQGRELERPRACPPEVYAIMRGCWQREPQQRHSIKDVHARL
T1 sequence (Q9UM73 1116-1392 limits assumed, species assumed): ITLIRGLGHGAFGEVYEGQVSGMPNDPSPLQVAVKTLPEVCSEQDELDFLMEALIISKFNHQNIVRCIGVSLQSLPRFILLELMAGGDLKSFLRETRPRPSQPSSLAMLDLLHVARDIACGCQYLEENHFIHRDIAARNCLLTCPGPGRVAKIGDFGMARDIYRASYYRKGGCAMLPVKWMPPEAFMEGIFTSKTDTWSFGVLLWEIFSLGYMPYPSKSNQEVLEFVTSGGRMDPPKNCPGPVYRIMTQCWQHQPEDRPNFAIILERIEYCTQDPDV

Row | Compound | IC50 (Alk) [nM] | IC50 (InsR) [nM] | IC50 (Jak2) [nM] | IC50 (IGF1R tyrosine kinase) [nM] | IC50 (TrkA) [nM] | IC50 (MM1r) [nM] | IC50 (CPM2) [nM] | IC50 (KMS11) [nM] | IC50 (H929) [nM] | IC50 [1] [nM] | IC50 (MM1s) [nM] | IC50 [2] [nM] | IC50 (UTMC2) [nM]
1 | Cc1c(Cl)cccc1OC[C@H](O)CNc1cc[nH]c(=O)c1-c1nc2cc3c(cc2[nH]1)C(=O)N(C1CCN(C)CC1)C3 [compound 133] | 500 to 5000 | < 500 | < 500 | < 500 | < 500 |  |  |  |  |  |  |  | 
2 | COc1ccc(OCC(=O)CNc2cc[nH]c(=O)c2-c2nc3cc4c(cc3[nH]2)C(=O)N(C2CCN(C)CC2)C4)c(Cl)c1 [drawing 843] |  |  |  |  |  | 1000 to 5000 | 1000 to 5000 | 1000 to 5000 | 500 to 1000 | ≥ 20000 | 500 to 1000 | ≥ 20000 | < 500
3 | CN1CCC(N2Cc3cc4[nH]c(-c5c(NCC(=O)COc6ccccc6Br)cc[nH]c5=O)nc4cc3C2=O)CC1 [drawing 841] |  |  |  |  |  | 500 to 1000 | 1000 to 5000 | 1000 to 5000 | < 500 | ≥ 20000 | < 500 | ≥ 20000 | < 500
4 | Cc1ccc(OCC(=O)CNc2cc[nH]c(=O)c2-c2nc3cc4c(cc3[nH]2)CN(C2CCN(C)CC2)C4=O)c(C)c1 [drawing 838] |  |  |  |  |  | 500 to 1000 | 1000 to 5000 | 1000 to 5000 | < 500 | ≥ 20000 | < 500 | ≥ 20000 | 500 to 1000
5 | CN1CCC(N2Cc3cc4nc(-c5c(NC[C@@H](O)COc6c(F)ccc(Cl)c6F)cc[nH]c5=O)[nH]c4cc3C2=O)CC1 [compound 134] | 5000 to 15000 | < 500 | < 500 | < 500 | < 500 |  |  |  |  |  |  |  | 

Source: patent publication US8063225B2, “Tricyclic compound derivatives useful in the treatment of neoplastic diseases, inflammatory disorders and immunomodulatory disorders” (Chembridge Corporation, priority 2006, dated 2011)
